According to article PMC10214534, “Enzymatic Fluoromethylation Enabled by the S-Adenosylmethionine Analog Te-Adenosyl-L-(fluoromethyl)homotellurocysteine” (ACS Central Science, 2023):

How the values were obtained:
Assay type in all cases: biochemical
CFA synthase = molecular target: T1, CFA synthase (Escherichia coli, UniProt P0A9H7); assay: turnover, LC-MS/MS and […]-NMR; conditions: fluoromethyl donor; co-substrate dOPG
T1 construct: construct only in supplement

TPMT [1] = molecular target: T2, TPMT (Homo sapiens, UniProt P51580); assay: fluoromethyl transfer kinetics; conditions: fluoromethyl donor; thiol co-substrate as in Table 1
T2 construct: construct only in supplement
T2 sequence (P51580 1-245): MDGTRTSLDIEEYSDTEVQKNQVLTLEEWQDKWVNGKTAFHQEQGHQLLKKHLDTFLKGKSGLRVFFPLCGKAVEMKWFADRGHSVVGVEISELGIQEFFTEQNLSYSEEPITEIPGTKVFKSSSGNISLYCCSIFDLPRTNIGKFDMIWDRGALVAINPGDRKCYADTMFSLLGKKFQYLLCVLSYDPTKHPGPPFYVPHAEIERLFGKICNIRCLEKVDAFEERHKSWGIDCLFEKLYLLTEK

TPMT [2] = molecular target: T2, TPMT; assay: methyl transfer kinetics; conditions: methyl donor; thiol co-substrate as in Table 1

T1 sequence (P0A9H7 2-382): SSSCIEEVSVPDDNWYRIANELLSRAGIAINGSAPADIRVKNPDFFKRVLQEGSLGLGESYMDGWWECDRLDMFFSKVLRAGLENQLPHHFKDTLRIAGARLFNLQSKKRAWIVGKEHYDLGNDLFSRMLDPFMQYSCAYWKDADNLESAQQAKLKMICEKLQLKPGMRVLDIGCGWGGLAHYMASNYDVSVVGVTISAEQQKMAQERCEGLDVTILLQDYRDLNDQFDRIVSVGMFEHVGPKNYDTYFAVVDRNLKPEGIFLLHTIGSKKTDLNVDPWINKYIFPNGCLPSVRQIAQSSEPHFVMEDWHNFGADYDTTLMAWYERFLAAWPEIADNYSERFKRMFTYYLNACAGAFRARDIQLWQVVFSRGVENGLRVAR

Compound | turnover, LC-MS/MS and 19F-NMR (CFA synthase) | Km (TPMT [1]) | Km (TPMT [2])
Nc1ncnc2c1ncn2[C@@H]1O[C@H](C[Te+](CF)CC[C@H](N)C(=O)O)[C@@H](O)[C@H]1O [FMeTeSAM] | E. coli CFA synthase can use FMeTeSAM to catalyze cyclopropanation | the Km for FMeTeSAM is nearly the same as that for SAM | 
C[S+](CC[C@H](N)C(=O)O)C[C@H]1O[C@@H](n2cnc3c(N)ncnc32)[C@H](O)[C@@H]1O (stereo partly drawn) [SAM] |  |  | the Km for FMeTeSAM is nearly the same as that for SAM
